Where a name gives a salt, the structure may show the parent alone.
Columns and labels:
MDA-MB-468 = experiment: Cell proliferation assay, MDA-MB-468; format: cell-based; settings: Homo sapiens; MDA-MB-468, after 72 hours
Protocol: (§1) The cells were seeded at 5×10^3 to 1.5×10^4 cells (depending on cell type) in each well of a 96-well plate in 100 μL of fresh culture medium and adherent cells were allowed to attach overnight. The stock solutions of the compounds were diluted in cell culture medium to obtain eight concentrations of each drug, ranging from 1 nM to 30 μM and DMSO at less than 1% v/v was used as a negative control. The resulting drug solutions were transferred onto the cells. After 72 h of treatment, 20 μl of CellTiter 96® AQueous reagent was added into each well of the 96-well assay plates and the plate was incubated at 37° C. for 1-4 hours in a humidified, 5% CO2 atmosphere. Then the absorbance of each well was recorded at 490 nm using a 96-well plate reader. In most cases, the assay was performed in triplicate and the results were presented as half maximal inhibitory concentration (IC50).

HCC-1143 = experiment: Cell proliferation assay, HCC-1143; format: cell-based; settings: Homo sapiens, HCC1143; HCC-1143, type BaA, 72 h
Protocol: as §1

MCF12A = experiment: Cell proliferation assay, MCF12A; format: cell-based; settings: Homo sapiens, MCF-12A, type BaB, 72 h
Protocol: as §1

[1] = system: MDA-MB-468 TNBC Basal A cells; experiment: Nuclear localization of FOXO3a and IκB, MDA-MB-468; format: cell-based; settings: MDA-MB-468, 1 μM, 24 hours
Protocol: MDA-MB-468 TNBC Basal A and BT-20 TNBC Basal B cells were exposed to DMSO or 1 μM Compound 1-3 for 24 hours and then stained for FOXO3a or IκB with or without DAPI nuclear stain. The stained cells were examined for nuclear localization.

ZR7530 = experiment: Cell proliferation assay, ZR7530; format: cell-based; settings: Homo sapiens, ZR-75-30; ZR7530, type Lu/HER+, 72 h
Protocol: as §1

HS578T = experiment: Cell proliferation assay, HS578T; format: cell-based; settings: Homo sapiens, Hs-578T, type BaB, 72 h
Protocol: as §1

BT-549 = experiment: Cell proliferation assay, BT-549; format: cell-based; settings: Homo sapiens; BT-549, type BaB, 72 h
Protocol: as §1

MDA-MB-468 cells = experiment: Anti-apoptosis and cell cycle proteins immunoblot, MDA-MB-468; format: cell-based; settings: MDA-MB-468, increasing concentrations, 24 hours
[2] = system: PMA-induced male BALB/c psoriatic mice; format: in vivo; settings: 10 mg/kg oral, M-W-F
Protocol: BALB/c mice were housed in individually ventilated cages in a controlled environment (temperature 22±1° C., humidity 70±5%, and 12 h light/12 h dark cycle) in the animal facility. The mice had access to commercially available feed pellets and UV-treated potable water ad libitum. 4 mice were housed per individually ventilated cage. Each animal in the cage was identified by a tail. 8 mice per group mice were randomized into different treatment groups according to body weight. Following randomization the mean body weight for all groups was equivalent. Study design was Group 1: Naïve, 1% DMSO vehicle (10-30 ul, topical once daily), Group 2: PMA, 1% DMSO vehicle (10-30 ul, topical once daily), Group 3: PMA, 1-4 10 mg/kg in PVP/Pluronics (oral, M-W-F; Day 1-Day 3-Day 5-Day 7), Group 4: PMA, 0.1% betamethasone—25 mg (reference standard) (topical once daily)
4 ug Phorbol 12-myristate 13-acetate (PMA) in 20 uL of acetone was applied every day to mouse ears. Starting from Day 2, PMA-induction of dermal inflammation/psoriasis manifested with increases in clinical disease activity index associated with increased thickness of ear, scaling of ear-skin, and folding of ear-skin. The following parameters were evaluated: (i) the thickness of the ear, (ii) scaling on the skin of ear. This will be based on a scoring index—0, no scaling; 1, mild scaling; 2, moderate scaling; 3, severe scaling. […]

Zucker rats = format: in vivo; settings: orally administered at 0.625, 1.25 and 2.5 mg/kg
Protocol: For novel object recognition test, Zucker rats were placed into a test chamber (dimension 26″×18″×18″; L×W×H). Food and water was not be permitted during the test. The test had 3 phases: a) Familiarisation phase: Rats were singly placed in test chamber and allowed to freely explore for 60 min. The distance travelled by the animal during this phase was recorded using tracking software (AnyMaze system). The purpose of this phase was to familiarise the animals to the test apparatus. […] The distance travelled by the animal during this sample phase was automatically recorded, as well as the time spent by the animal interacting with the novel objects, using a tracking software system and visual observation. […] The distance travelled by the animal during the test phase was automatically recorded, as well as the time spent by the animal interacting with the novel and familiar objects, using a tracking software system and visual observation. Object interaction scores during both the sample and test phase were independently recorded by 2 observers. The final score represents the difference score between each reading. […]

Structure (SMILES): O=C(/C=C\n1cnc(-c2cc(C(F)(F)F)cc(C(F)(F)F)c2)n1)NNc1cnccn1 [Compound I-3, (Z)-3-(3-(3,5-bis(trifluoromethyl)phenyl)-1H-1,2,4-triazol-1-yl)-N′-(pyrazin-2-yl)acrylohydrazide]
- IC50 (MDA-MB-468): 10 nM
- IC50 (HCC-1143): 600 nM
- IC50 (MCF12A): 150 nM
- localization of FOXO3a and IκB [1]: both FOXO3a and IκB were localized in the cell nucleus
- IC50 (ZR7530): 19000 nM
- IC50 (HS578T): 1500 nM
- IC50 (BT-549): 20 nM
- MCL-1 protein level (MDA-MB-468 cells): a reduction in MCL-1 is observed

Structure (SMILES): O=C(/C=C\n1cnc(-c2cc(C(F)(F)F)cc(C(F)(F)F)c2)n1)NNc1ccccn1 [Compound I-4, (Z)-3-(3-(3,5-bis(trifluoromethyl)phenyl)-1H-1,2,4-triazol-1-yl)-N′-(pyridin-2-yl)acrylohydrazide hydrochloride]
- efficacy relative to positive control betamethasone [2]: comparable to positive control betamethasone
- mean ear thickness ([2]; compared to vehicle): reduced mean ear thickness in a statistically significant manner
- novel object recognition (object preference) (Zucker rats): induced trends of improved novel object recognition

From patent US12291508B2, “Hydrazide containing nuclear transport modulators and uses thereof” (Karyopharm Therapeutics Inc., priority 2011, dated 2025)
